Literature values, collected in publication doi:10.1101/2023.05.15.540887, “Comparative analysis of drug-like EP300/CREBBP acetyltransferase inhibitors” (bioRxiv, 2023).

Key:
Parameters in all cases: method as in ref 29 (a number printed in a supplementary file, which may have a reference list of its own: not looked up in the article's list)
K-562 = details: Leukemia K-562; highest log conc -4.0; NCI-60 screen data; cited from earlier work
MOLT-4 = details: Leukemia MOLT-4; highest log conc -4.0; NCI-60 screen data; cited from earlier work
HOP-62 = details: Non-SmallCellLung HOP-62; highest log conc -4.0; NCI-60 screen data; cited from earlier work
HT29 = details: Colon HT29; highest log conc -4.0; NCI-60 screen data; cited from earlier work
KM12 = details: Colon KM12; highest log conc -4.0; NCI-60 screen data; cited from earlier work
SF-268 = details: CNS SF-268; highest log conc -4.0; NCI-60 screen data; cited from earlier work
SNB-19 = details: CNS SNB-19; highest log conc -4.0; NCI-60 screen data; cited from earlier work
SNB-75 = details: CNS SNB-75; highest log conc -4.0; NCI-60 screen data; cited from earlier work
U251 = details: CNS U251; highest log conc -4.0; NCI-60 screen data; cited from earlier work
M14 = details: Melanoma M14; highest log conc -4.0; NCI-60 screen data; cited from earlier work
SK-MEL-28 = details: Melanoma SK-MEL-28; highest log conc -4.0; NCI-60 screen data; cited from earlier work
UACC-257 = details: Melanoma UACC-257; highest log conc -4.0; NCI-60 screen data; cited from earlier work
OVCAR-4 = details: Ovarian OVCAR-4; highest log conc -4.0; NCI-60 screen data; cited from earlier work
NCI/ADR-RES = details: Ovarian NCI/ADR-RES; highest log conc -4.0; NCI-60 screen data; cited from earlier work
SK-OV-3 = details: Ovarian SK-OV-3; highest log conc -4.0; NCI-60 screen data; cited from earlier work
A498 = details: Renal A498; highest log conc -4.0; NCI-60 screen data; cited from earlier work
ACHN = details: Renal ACHN; highest log conc -4.0; NCI-60 screen data; cited from earlier work
RXF393 = details: Renal RXF393; highest log conc -4.0; NCI-60 screen data; cited from earlier work
DU-145 = details: Prostate DU-145; highest log conc -4.0; NCI-60 screen data; cited from earlier work
MDA-MB-231/ATCC = details: Breast MDA-MB-231/ATCC; highest log conc -4.0; NCI-60 screen data; cited from earlier work
MDA-MB-468 = details: Breast MDA-MB-468; highest log conc -4.0; NCI-60 screen data; cited from earlier work

| SMILES | GI50 AVGDATA (K-562) | GI50 AVGDATA (MOLT-4) | GI50 AVGDATA (HOP-62) | GI50 AVGDATA (HT29) | GI50 AVGDATA (KM12) | GI50 AVGDATA (SF-268) | GI50 AVGDATA (SNB-19) | GI50 AVGDATA (SNB-75) | GI50 AVGDATA (U251) | GI50 AVGDATA (M14) | GI50 AVGDATA (SK-MEL-28) | GI50 AVGDATA (UACC-257) | GI50 AVGDATA (OVCAR-4) | GI50 AVGDATA (NCI/ADR-RES) | GI50 AVGDATA (SK-OV-3) | GI50 AVGDATA (A498) | GI50 AVGDATA (ACHN) | GI50 AVGDATA (RXF393) | GI50 AVGDATA (DU-145) | GI50 AVGDATA (MDA-MB-231/ATCC) | other results |
| --- | --- | --- | --- | --- | --- | --- | --- | --- | --- | --- | --- | --- | --- | --- | --- | --- | --- | --- | --- | --- | --- |
| COC(=O)N1c2ccc3c(nc(Cc4ccccc4)n3[C@H]3CCC[C@H](C(=O)O)C3)c2CC[C@@H]1C [FT-6876] | -5.3 | -4.84 | -4.95 | -5.26 | -4.79 | -4.56 | -4.9 | -6.37 | -4.77 | -5.23 | -4.88 | -4.83 | -5.17 | -4.19 | -4.77 | -4.91 | -4.77 | -4.91 | -4.03 | -4.8 | GI50 AVGDATA (MDA-MB-468): -5.42 |
| Cc1sc2c(c1C)C(c1ccc(Cl)cc1)=N[C@@H](CC(=O)OC(C)(C)C)c1nnc(C)n1-2 [JQ-1] | -7.24 | -5.74 | -6.92 | -7.01 | -6.02 | -5.33 | -6.38 | -7.6 | -5.91 | -6.11 | -6.4 | -6.83 | -6.82 | -6.4 | -6.49 | -7.21 | -6.3 | -6.13 | -5.07 | -6.52 | GI50 AVGDATA (MDA-MB-468): -6.95 |
| CO[C@H]1CC[C@H](n2c([C@@H]3CCCC(=O)N3c3ccc(F)c(F)c3)nc3cc(-c4c(C)noc4C)ccc32)CC1 [inobrodib] | -5.55 | -4.77 | -5.35 | -5.59 | -4.86 | -4.83 | -5.03 | -7.96 | -4.99 | -5.73 | -4.93 | -5.59 | -6.11 | -4.87 | -5.39 | -5.22 | -5.32 | -5.32 | -4.77 | -5.07 | GI50 AVGDATA (MDA-MB-468): -5.4 |
